US12616676B2, “Preparation method and use of modified hydrophobic excipient” (ZHEJIANG ZHIDA PHARMACEUTICAL CO., LTD., priority 2019, dated 2026)
Where two headings read alike, the source gives them in different places.

Experiment: solubility of paclitaxel in olive oil, castor oil and hydrophobic excipients (crystal formation after drying)
Assay type: physicochemical
Method: The specific experimental method was as follows. […] The chloroform solution was mixed with 0.5 ml of chloroform, from which 0.5 ml of diluent was taken and two-fold serial dilution was performed by using chloroform. Then 0.5 ml of a chloroform solution of paclitaxel (10 mg/ml) was added to the above-mentioned sample after the two-fold serial dilution, and then left in a hood to be naturally volatilized overnight. Crystal formation in the dried sample was observed and recorded.

Compound | solubility of paclitaxel compared with olive oil and castor oil (data comparison in table 1) | solubility of paclitaxel (crystal formation in the dried sample) (hydrophobic excipient 0.98 mg, 0.5 ml chloroform solution of paclitaxel (10 mg/ml), volatilized overnight) | solubility of paclitaxel (crystal formation in the dried sample) (hydrophobic excipient 1.95 mg, 0.5 ml chloroform solution of paclitaxel (10 mg/ml), volatilized overnight) | solubility of paclitaxel (crystal formation in the dried sample) (hydrophobic excipient 3.90 mg, 0.5 ml chloroform solution of paclitaxel (10 mg/ml), volatilized overnight) | solubility of paclitaxel (crystal formation in the dried sample) (hydrophobic excipient 7.81 mg, 0.5 ml chloroform solution of paclitaxel (10 mg/ml), volatilized overnight) | solubility of paclitaxel (crystal formation in the dried sample) (hydrophobic excipient 15.65 mg, 0.5 ml chloroform solution of paclitaxel (10 mg/ml), volatilized overnight) | solubility of paclitaxel (crystal formation in the dried sample) (hydrophobic excipient 31.30 mg, 0.5 ml chloroform solution of paclitaxel (10 mg/ml), volatilized overnight) | solubility of paclitaxel (crystal formation in the dried sample) (hydrophobic excipient 62.50 mg, 0.5 ml chloroform solution of paclitaxel (10 mg/ml), volatilized overnight) | solubility of paclitaxel (crystal formation in the dried sample) (hydrophobic excipient 125.00 mg, 0.5 ml chloroform solution of paclitaxel (10 mg/ml), volatilized overnight) | solubility of paclitaxel (crystal formation in the dried sample) (hydrophobic excipient 250.00 mg, 0.5 ml chloroform solution of paclitaxel (10 mg/ml), volatilized overnight) | solubility of paclitaxel (crystal formation in the dried sample)
CCCCCCCC/C=C\CCCCCCCCNC(=O)CC[C@@H](C)[C@H]1CC[C@H]2[C@@H]3[C@H](OC(=O)CNC(=O)[C@H](CCCCNC(=O)OC(C)(C)C)NC(=O)OCC4c5ccccc5-c5ccccc54)C[C@@H]4C[C@H](OC(=O)CNC(=O)[C@H](CCCCNC(=O)OC(C)(C)C)NC(=O)OCC5c6ccccc6-c6ccccc65)CC[C@]4(C)[C@H]3C[C@H](OC(=O)CNC(=O)[C@H](CCCCNC(=O)OC(C)(C)C)NC(=O)OCC3c4ccccc4-c4ccccc43)[C@]12C [Example 4] | greater than that in olive oil and castor oil | + | + | + | +/− | − | − | − | − | − | 
castor oil |  |  |  |  |  |  |  |  |  |  | +
